Source: article PMC5390467, “Novel lead structures with both Plasmodium falciparum gametocytocidal and asexual blood stage activity identified from high throughput compound screening” (Malaria Journal, 2017)
“And” between values parts separate entries of the source, which are not always exact repeats. Equal values may be shown once.

What was measured:
TRKA = molecular target: T1, TRKA (Homo sapiens, UniProt P04629); assay: Kinome scan profile; format: binding; conditions: 10 μM
T1 construct: purchased DiscoverX (KINOMEscan)
T1 sequence (P04629 33-796): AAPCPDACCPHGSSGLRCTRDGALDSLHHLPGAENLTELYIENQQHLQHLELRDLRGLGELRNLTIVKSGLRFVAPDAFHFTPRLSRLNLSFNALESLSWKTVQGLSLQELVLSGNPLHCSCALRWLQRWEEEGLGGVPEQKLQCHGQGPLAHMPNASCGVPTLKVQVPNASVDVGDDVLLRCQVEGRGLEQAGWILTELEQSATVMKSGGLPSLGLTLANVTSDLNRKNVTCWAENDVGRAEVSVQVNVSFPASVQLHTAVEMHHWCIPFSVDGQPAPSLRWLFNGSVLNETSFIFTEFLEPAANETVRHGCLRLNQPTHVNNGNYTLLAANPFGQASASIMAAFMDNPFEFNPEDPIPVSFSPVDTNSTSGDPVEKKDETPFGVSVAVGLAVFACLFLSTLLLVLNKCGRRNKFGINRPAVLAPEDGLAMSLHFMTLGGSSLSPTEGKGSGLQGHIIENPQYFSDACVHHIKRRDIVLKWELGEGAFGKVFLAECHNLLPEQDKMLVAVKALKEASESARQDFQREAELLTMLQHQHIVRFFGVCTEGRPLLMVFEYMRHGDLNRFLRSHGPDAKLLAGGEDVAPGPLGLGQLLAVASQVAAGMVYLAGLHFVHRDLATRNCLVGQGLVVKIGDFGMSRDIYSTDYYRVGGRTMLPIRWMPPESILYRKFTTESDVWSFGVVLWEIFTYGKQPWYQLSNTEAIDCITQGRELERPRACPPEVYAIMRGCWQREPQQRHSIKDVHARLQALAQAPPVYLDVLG

[1] = molecular target: T2, RSK2(Kin.Dom.2-C-terminal) (Homo sapiens, UniProt P51812); assay: Kinome scan profile; format: binding; conditions: 10 μM
T2 construct: RSK2(Kin.Dom.2-C-terminal); purchased DiscoverX (KINOMEscan)
T2 sequence (P51812 422-679 limits assumed): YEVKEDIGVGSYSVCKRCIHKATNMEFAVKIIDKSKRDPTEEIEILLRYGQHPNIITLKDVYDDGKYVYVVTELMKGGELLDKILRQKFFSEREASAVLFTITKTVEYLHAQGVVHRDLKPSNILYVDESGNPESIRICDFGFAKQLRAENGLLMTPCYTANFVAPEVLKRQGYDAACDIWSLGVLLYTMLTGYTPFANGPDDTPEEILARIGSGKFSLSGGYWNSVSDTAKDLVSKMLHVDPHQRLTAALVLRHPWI

[2] = system: P. falciparum NF54 asexual parasites; assay: asexual parasite growth inhibition assay (SYBR Green); format: cell-based, Plasmodium falciparum; conditions: 72 h, mean ± SD, n = 3
Description: Asexual parasites of P. falciparum strain NF54 were cultured as described previously. Briefly, parasites were maintained in RPMI 1640 medium containing 10% positive human serum + erythrocytes (5% haematocrit), 2.5% sodium bicarbonate and 11 µg/mL gentamicin at 37 °C with 5% CO2, 5% O2 and 90% N2. Gametocyte cultures were set up at 0.1% parasitaemia and on days 9–10 treated with 50 mM N-acetylglucosamine (NAG) to block further asexual growth. Stage III–V gametocytes were isolated by Percoll density gradient centrifugation on day 12 and returned to culture for 24 h before being used in the assay. At the time of the assay over 73% of the gametocytes were stage IV or V (Additional file 1). HepG2 cells (ATCC, cat. no. 77400) were cultured in 175-cm^2 tissue culture flasks with 30 ml growth medium at 37 °C in a 5% CO2 and 5% O2 humidified atmosphere. Growth medium was made with Dulbecco’s Modified Eagle Medium with 10% fetal bovine serum (FBS). Growth medium was replaced every other day and cells were passaged at 75% confluence.
Drug activity on asexual stage parasites was tested using a SYBR Green assay as described previously. Briefly, 2.5 μL/well complete culture medium was dispensed into each well of 1536-well plates using the Multidrop Combi followed by 23 nL compound transferring using the NX-TR Pintool. Parasites were diluted to 0.5% parasitaemia in complete culture medium with 2% haematocrit and drugs diluted in DMSO (≤0.5%). The pre-diluted parasites were dispensed into a 1536-well plate (2.5 μL/well). After 72 h incubation under the standard culture conditions, 5 μL/well of lysis buffer containing SYBR Green I was added to the parasite culture and incubated for 30 min at room temperature. The fluorescence of each well was measured in a fluorescence detection mode (Ex = 490 nm, Em = 520 nm) using a ViewLux plate reader (PerkinElmer).

ERBB3 = molecular target: T3, ERBB3 (Homo sapiens, UniProt P21860); assay: Kinome scan profile; format: binding; conditions: 10 μM
T3 construct: purchased DiscoverX (KINOMEscan)
T3 sequence (P21860 20-1342): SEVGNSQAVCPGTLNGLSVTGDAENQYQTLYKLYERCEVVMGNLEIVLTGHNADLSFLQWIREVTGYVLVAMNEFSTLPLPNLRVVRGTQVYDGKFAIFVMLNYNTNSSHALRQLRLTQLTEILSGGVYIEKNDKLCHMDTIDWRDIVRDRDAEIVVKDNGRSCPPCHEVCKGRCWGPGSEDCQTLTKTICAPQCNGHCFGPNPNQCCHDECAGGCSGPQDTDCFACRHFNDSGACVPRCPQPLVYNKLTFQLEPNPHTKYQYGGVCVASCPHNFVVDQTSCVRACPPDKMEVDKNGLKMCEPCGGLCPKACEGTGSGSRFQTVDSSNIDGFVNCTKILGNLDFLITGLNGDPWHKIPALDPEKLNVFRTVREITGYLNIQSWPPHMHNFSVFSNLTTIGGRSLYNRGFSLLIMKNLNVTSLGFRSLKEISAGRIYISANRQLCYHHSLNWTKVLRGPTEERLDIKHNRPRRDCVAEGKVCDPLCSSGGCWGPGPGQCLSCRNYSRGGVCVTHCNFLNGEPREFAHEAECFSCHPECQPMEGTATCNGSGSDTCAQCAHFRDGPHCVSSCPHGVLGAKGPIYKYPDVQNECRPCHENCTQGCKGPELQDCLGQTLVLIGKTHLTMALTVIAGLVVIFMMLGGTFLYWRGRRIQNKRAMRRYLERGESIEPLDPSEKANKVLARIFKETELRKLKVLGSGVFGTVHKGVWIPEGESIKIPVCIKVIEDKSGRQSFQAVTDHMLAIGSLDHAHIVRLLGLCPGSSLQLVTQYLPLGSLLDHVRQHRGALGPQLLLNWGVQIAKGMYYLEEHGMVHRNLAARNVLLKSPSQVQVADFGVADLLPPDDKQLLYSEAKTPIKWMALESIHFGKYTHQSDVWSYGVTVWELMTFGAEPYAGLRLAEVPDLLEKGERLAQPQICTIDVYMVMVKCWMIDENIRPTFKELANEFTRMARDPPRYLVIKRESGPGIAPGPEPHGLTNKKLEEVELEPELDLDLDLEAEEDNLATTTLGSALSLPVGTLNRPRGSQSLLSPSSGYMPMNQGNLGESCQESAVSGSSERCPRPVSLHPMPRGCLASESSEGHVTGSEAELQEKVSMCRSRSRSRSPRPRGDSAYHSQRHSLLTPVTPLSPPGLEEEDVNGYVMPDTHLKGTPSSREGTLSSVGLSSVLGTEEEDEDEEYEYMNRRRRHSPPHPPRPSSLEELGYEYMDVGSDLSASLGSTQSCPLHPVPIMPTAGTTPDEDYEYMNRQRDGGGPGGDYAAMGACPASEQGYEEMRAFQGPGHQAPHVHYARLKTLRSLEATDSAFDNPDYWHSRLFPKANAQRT

[3] = molecular target: T4, JAK2(JH1domain-catalytic) (Homo sapiens, UniProt O60674); assay: Kinome scan profile; format: binding; conditions: 10 μM
T4 construct: JAK2(JH1domain-catalytic); purchased DiscoverX (KINOMEscan)
T4 sequence (O60674 849-1124 limits assumed): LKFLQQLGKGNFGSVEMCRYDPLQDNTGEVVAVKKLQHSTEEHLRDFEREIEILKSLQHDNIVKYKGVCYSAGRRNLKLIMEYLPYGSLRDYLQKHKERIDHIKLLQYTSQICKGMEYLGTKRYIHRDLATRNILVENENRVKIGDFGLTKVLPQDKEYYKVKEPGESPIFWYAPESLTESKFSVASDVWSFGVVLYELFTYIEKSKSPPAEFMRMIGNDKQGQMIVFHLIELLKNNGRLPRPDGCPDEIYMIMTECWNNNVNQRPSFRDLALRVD

468 human kinases = assay: human kinase profiling (Kinome scan, DiscoverX), whole panel; format: binding
[4] = molecular target: T5, TYK2(JH1domain-catalytic) (Homo sapiens, UniProt P29597); assay: Kinome scan profile; format: binding; conditions: 10 μM
T5 construct: TYK2(JH1domain-catalytic); purchased DiscoverX (KINOMEscan)
T5 sequence (P29597 897-1176 limits assumed): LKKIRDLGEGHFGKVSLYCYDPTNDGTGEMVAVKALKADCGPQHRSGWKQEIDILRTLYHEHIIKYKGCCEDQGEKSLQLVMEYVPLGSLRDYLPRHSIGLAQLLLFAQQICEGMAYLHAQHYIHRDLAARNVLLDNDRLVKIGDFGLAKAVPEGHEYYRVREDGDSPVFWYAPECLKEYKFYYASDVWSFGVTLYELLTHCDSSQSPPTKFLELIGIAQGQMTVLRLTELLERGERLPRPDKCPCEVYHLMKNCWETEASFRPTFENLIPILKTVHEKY

MST4 = molecular target: T6, MST4 (Homo sapiens, UniProt Q9P289); assay: Kinome scan profile; format: binding; conditions: 10 μM
T6 construct: purchased DiscoverX (KINOMEscan)
T6 sequence (Q9P289 whole entry): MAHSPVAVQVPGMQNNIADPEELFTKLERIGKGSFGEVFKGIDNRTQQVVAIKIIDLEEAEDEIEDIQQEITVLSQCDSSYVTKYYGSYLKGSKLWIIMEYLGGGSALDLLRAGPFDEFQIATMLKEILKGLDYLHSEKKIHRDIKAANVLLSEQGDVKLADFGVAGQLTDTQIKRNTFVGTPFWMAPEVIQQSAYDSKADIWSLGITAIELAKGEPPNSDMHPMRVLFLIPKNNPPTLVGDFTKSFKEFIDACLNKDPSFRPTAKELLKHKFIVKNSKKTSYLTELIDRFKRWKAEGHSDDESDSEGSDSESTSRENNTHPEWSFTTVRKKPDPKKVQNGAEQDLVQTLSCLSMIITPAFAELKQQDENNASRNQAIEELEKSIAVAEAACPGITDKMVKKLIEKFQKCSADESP

- % Control, TRKA (TRKA): 22 % Control
- % Control, RSK2(Kin.Dom.2-C-terminal) [1]: 29 % Control
- IC50 [2]: 339 nM and 340 nM
- % Control, ERBB3 (ERBB3): 17 % Control
- % Control, JAK2(JH1domain-catalytic) [3]: 31 % Control
- number of human kinases interacting (Interactions Mapped, 468 Assays Tested) (468 human kinases; 10 μM): 16
- S-Score(35) (468 human kinases; 10 µM, 468 assays): 0.03
- % Control, TYK2(JH1domain-catalytic) [4]: 19 % Control
- % Control, MST4 (MST4): 34 % Control
Structure (SMILES): CCN1CCN(Cc2c(O)ccc3c(=O)c(Oc4ccccc4C(C)C)c(C(F)(F)F)oc23)CC1 [NCGC00100599]
